Laboratory results published in patent publication US10030027B2, “Soluble guanylate cyclase stimulators” (MERCK SHARP & DOHME CORP., priority 2015, dated 2018).

Key:
sGC α1/β1 heterodimer = sGC α1/β1 heterodimer (Homo sapiens (Human), UniProt Q02108+Q02153); experiment: Cell-based sGC functional assay (cyclic GMP assay for sGC activator: CASA assay); details: CHO-K1/sGC cells; for Emax: CHO-K1, activity expressed as percentage of compound A (standard), read-out: % Activation; for EC50: inflection point, 4P fit, read-out: IP
Outline: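 CHO-K1 cells stably expressing human sGC α1/β1 were pre-incubated 30 min at 25° C with or without 1 μM DETA-NO, then exposed to compound for 1 hr at 37° C with 0.5 mM IBMX and 2.5% DMSO final. Intracellular cGMP was measured by HTRF, expressed as % of reference sGC-HDA maximum; inflection point and maximum fold induction came from 4-parameter fits.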

[1] = biological target: human recombinant sGC enzyme (Homo sapiens (Human), UniProt Q02108+Q02153); experiment: Size Exclusion Chromatography (SEC) competition binding assay using [3H] Ex-77B as the radioligand; details: [3H] Ex-77B radioligand, 24 hours at 37° C.
Outline: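 Recombinant human sGC binding measured by competition against tritiated Ex-77B radioligand, with non-specific binding defined by 1 μM unlabeled Ex-77B.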

## CC(Cc1ccc(C2(C)C(=O)Nc3nc(-c4nn(CCCC(F)(F)F)c5ncccc45)nc(N)c32)cc1)C(=O)O (stereo not drawn) [Example 17AB, 3-(4-{4-amino-5-methyl-6-oxo-2-[1-(4,4,4-trifluorobutyl)-1H-pyrazolo[3,4-b]pyridin-3-yl]-6,7-dihydro-5H-pyrrolo[2,3-d]pyrimidin-5-yl}phenyl)-2-methylpropanoic acid]
sGC α1/β1 heterodimer
  Emax: 77%
  EC50: 3780 nM
[1]
  Ki: 0.936 nM

## C[C@@]1(c2ccc(CCC(=O)O)cc2)C(=O)Nc2nc(-c3nn(CCCC(F)(F)F)c4ncc(F)cc34)nc(N)c21 [Example 18B, (S)-3-(4-{4-amino-2-[5-fluoro-1-(4,4,4-trifluorobutyl)-1H-pyrazolo[3,4-b]pyridin-3-yl]-5-methyl-6-oxo-6,7-dihydro-5H-pyrrolo[2,3-d]pyrimidin-5-yl}phenyl)propanoic acid]
sGC α1/β1 heterodimer
  Emax: 95%
  EC50: 2500 nM
[1]
  Ki: 0.92 nM

## C[C@@]1(c2ccc(CCC(=O)O)cc2)C(=O)Nc2nc(-c3nn(CCCC(F)(F)F)c4nc(Cl)ccc34)nc(N)c21 [Example 19B, (S)-3-(4-{4-amino-2-[6-chloro-1-(4,4,4-trifluorobutyl)-1H-pyrazolo[3,4-b]pyridin-3-yl]-5-methyl-6-oxo-6,7-dihydro-5H-pyrrolo[2,3-d]pyrimidin-5-yl}phenyl)propanoic acid]
sGC α1/β1 heterodimer
  Emax: 89%
  EC50: 1040 nM
[1]
  Ki: 0.286 nM

## Cc1ccc2c(-c3nc(N)c4c(n3)NC(=O)[C@@]4(C)c3ccc(CCC(=O)O)cc3)nn(CCCC(F)(F)F)c2n1 [Example 20B, (S)-3-(4-{4-amino-5-methyl-2-[6-methyl-1-(4,4,4-trifluorobutyl)-1H-pyrazolo[3,4-b]pyridin-3-yl]-6-oxo-6,7-dihydro-5H-pyrrolo[2,3-d]pyrimidin-5-yl}phenyl)propanoic acid]
sGC α1/β1 heterodimer
  Emax: 88%
  EC50: 2210 nM
[1]
  Ki: 4.49 nM

## C[C@@]1(c2ccc(CCC(=O)O)cc2)C(=O)Nc2nc(-c3nn(Cc4ccccc4F)c4ncc(F)cc34)nc(N)c21 [Example 23B, (S)-3-(4-{4-amino-2-[5-fluoro-1-(2-fluorobenzyl)-1H-pyrazolo[3,4-b]pyridin-3-yl]-5-methyl-6-oxo-6,7-dihydro-5H-pyrrolo[2,3-d]pyrimidin-5-yl}phenyl)propanoic acid]
sGC α1/β1 heterodimer
  Emax: 109%
  EC50: 203 nM
[1]
  Ki: 0.099 nM

## Cc1ccc2c(-c3nc(N)c4c(n3)NC(=O)[C@@]4(C)c3ccc(CCC(=O)O)cc3)nn(Cc3ccc(C)c(F)c3F)c2n1 [Example 25B, (S)-3-(4-{4-amino-2-[1-(2,3-difluoro-4-methylbenzyl)-6-methyl-1H-pyrazolo[3,4-b]pyridin-3-yl]-5-methyl-6-oxo-6,7-dihydro-5H-pyrrolo[2,3-d]pyrimidin-5-yl}phenyl)propanoic acid]
sGC α1/β1 heterodimer
  Emax: 147%
  EC50: 201 nM
[1]
  Ki: 0.262 nM

## CC1(c2cccc(C(=O)O)c2)C(=O)Nc2nc(-c3nn(CCC(F)(F)C(F)(F)F)c4cc(Cl)ccc34)nc(N)c21 (stereo not drawn) [Example 26B, 3-{4-amino-2-[6-chloro-1-(3,3,4,4,4-pentafluorobutyl)-1H-indazol-3-yl]-5-methyl-6-oxo-6,7-dihydro-5H-pyrrolo[2,3-d]pyrimidin-5-yl}benzoic acid]
sGC α1/β1 heterodimer
  Emax: 102%
  EC50: 1920 nM
[1]
  Ki: 0.266 nM

## CC1(c2cn(CC(=O)O)nn2)C(=O)Nc2nc(-c3nn(CCC(F)(F)C(F)(F)F)c4cc(Cl)ccc34)nc(N)c21 (stereo not drawn) [Example 28B, (4-{4-amino-2-[6-chloro-1-(3,3,4,4,4-pentafluorobutyl)-1H-indazol-3-yl]-5-methyl-6-oxo-6,7-dihydro-5H-pyrrolo[2,3-d]pyrimidin-5-yl}-1H-1,2,3-triazol-1-yl)acetic acid]
sGC α1/β1 heterodimer
  Emax: 105%
  EC50: 2170 nM
[1]
  Ki: 0.536 nM

## CC1(c2cn(C(C)(C)C(=O)O)nn2)C(=O)Nc2nc(-c3nn(CCC(F)(F)C(F)(F)F)c4cc(Cl)ccc34)nc(N)c21 (stereo not drawn) [Example 30B, 2-(4-{4-amino-2-[6-chloro-1-(3,3,4,4,4-pentafluorobutyl)-1H-indazol-3-yl]-5-methyl-6-oxo-6,7-dihydro-5H-pyrrolo[2,3-d]pyrimidin-5-yl}-1H-1,2,3-triazol-1-yl)-2-methylpropanoic acid]
sGC α1/β1 heterodimer
  Emax: 93%
  EC50: 176 nM
[1]
  Ki: 0.56 nM

## CC(C)(Cn1cc(C2(C)C(=O)Nc3nc(-c4nn(CCC(F)(F)C(F)(F)F)c5cc(Cl)ccc45)nc(N)c32)nn1)C(=O)O (stereo not drawn) [Example 31B, 3-(4-{4-amino-2-[6-chloro-1-(3,3,4,4,4-pentafluorobutyl)-1H-indazol-3-yl]-5-methyl-6-oxo-6,7-dihydro-5H-pyrrolo[2,3-d]pyrimidin-5-yl}-1H-1,2,3-triazol-1-yl)-2,2-dimethylpropanoic acid]
sGC α1/β1 heterodimer
  Emax: 130%
  EC50: 8330 nM
[1]
  Ki: 1.41 nM

## CC1(c2cn(CC3(C(=O)O)CC3)nn2)C(=O)Nc2nc(-c3nn(CCC(F)(F)C(F)(F)F)c4cc(Cl)ccc34)nc(N)c21 (stereo not drawn) [Example 32B, 1-[(4-{4-amino-2-[6-chloro-1-(3,3,4,4,4-pentafluorobutyl)-1H-indazol-3-yl]-5-methyl-6-oxo-6,7-dihydro-5H-pyrrolo[2,3-d]pyrimidin-5-yl}-1H-1,2,3-triazol-1-yl)methyl]cyclopropanecarboxylic acid]
sGC α1/β1 heterodimer
  Emax: 79%
  EC50: 445 nM
[1]
  Ki: 1.7 nM

## CCCCn1nc(-c2nc(N)c3c(n2)NC(=O)C3(C)c2cn(CC(=O)O)nn2)c2ccc(Cl)cc21 (stereo not drawn) [Example 35B, 2-{4-[4-amino-2-(1-butyl-6-chloro-1H-indazol-3-yl)-5-methyl-6-oxo-6,7-dihydro-5H-pyrrolo[2,3-d]pyrimidin-5-yl]-1H-1,2,3-triazol-1-yl}acetic acid]
sGC α1/β1 heterodimer
  Emax: 102%
  EC50: 2790 nM
[1]
  Ki: 1.12 nM

## CCCCn1nc(-c2nc(N)c3c(n2)NC(=O)C3(C)c2cn(CCC(=O)O)nn2)c2ccc(Cl)cc21 (stereo not drawn) [Example 36B, 3-{4-[4-amino-2-(1-butyl-6-chloro-1H-indazol-3-yl)-5-methyl-6-oxo-6,7-dihydro-5H-pyrrolo[2,3-d]pyrimidin-5-yl]-1H-1,2,3-triazol-1-yl}propanoic acid]
sGC α1/β1 heterodimer
  Emax: 105%
  EC50: 916 nM
[1]
  Ki: 0.908 nM

## CCCCn1nc(-c2nc(N)c3c(n2)NC(=O)C3(C)c2ccc(CC(C)(C)C(=O)O)cc2)c2ccc(Cl)cc21 (stereo not drawn) [Example 37B, 3-{4-[4-amino-2-(1-butyl-6-chloro-1H-indazol-3-yl)-5-methyl-6-oxo-6,7-dihydro-5H-pyrrolo[2,3-d]pyrimidin-5-yl]phenyl}-2,2-dimethylpropanoic acid]
sGC α1/β1 heterodimer
  Emax: 96%
  EC50: 762 nM
[1]
  Ki: 0.484 nM

## COCCn1nc(-c2nc(N)c3c(n2)NC(=O)C3(C)c2cccc(CC(C)(C)C(=O)O)c2)c2ccc(Cl)cc21 (stereo not drawn) [Example 39B, 3-(3-{4-amino-2-[6-chloro-1-(2-methoxyethyl)-1H-indazol-3-yl]-5-methyl-6-oxo-6,7-dihydro-5H-pyrrolo[2,3-d]pyrimidin-5-yl}phenyl)-2,2-dimethylpropanoic acid]
sGC α1/β1 heterodimer
  Emax: 82%
  EC50: 1090 nM
[1]
  Ki: 3.65 nM

## C[C@@]1(c2ccc(CCC(=O)O)cc2)C(=O)Nc2nc(-c3nn(CCCC(F)(F)F)c4cc(Cl)ccc34)nc(N)c21 [Example 41B, (S)-3-(4-{4-amino-2-[6-chloro-1-(4,4,4-trifluorobutyl)-1H-indazol-3-yl]-5-methyl-6-oxo-6,7-dihydro-5H-pyrrolo[2,3-d]pyrimidin-5-yl}phenyl)propanoic acid]
sGC α1/β1 heterodimer
  Emax: 85%
  EC50: 779 nM
[1]
  Ki: 0.717 nM

## CC(C)(Cc1ccc(C2(C)C(=O)Nc3nc(-c4nn(CCCC(F)(F)F)c5cc(Cl)ccc45)nc(N)c32)cc1)C(=O)O (stereo not drawn) [Example 42B, 3-(4-{4-amino-2-[6-chloro-1-(4,4,4-trifluorobutyl)-1H-indazol-3-yl]-5-methyl-6-oxo-6,7-dihydro-5H-pyrrolo[2,3-d]pyrimidin-5-yl}phenyl)-2,2-dimethylpropanoic acid]
sGC α1/β1 heterodimer
  Emax: 84%
  EC50: 1050 nM
[1]
  Ki: 0.951 nM

## CCCCCn1nc(-c2nc(N)c3c(n2)NC(=O)[C@@]3(C)c2ccc(CCC(=O)O)cc2)c2ccc(Cl)cc21 [Example 43B, (S)-3-{4-[4-amino-2-(6-chloro-1-pentyl-1H-indazol-3-yl)-5-methyl-6-oxo-6,7-dihydro-5H-pyrrolo[2,3-d]pyrimidin-5-yl]phenyl}propanoic acid]
sGC α1/β1 heterodimer
  Emax: 105%
  EC50: 142 nM
[1]
  Ki: 0.096 nM

## C[C@@]1(c2ccc(CCC(=O)O)cc2)C(=O)Nc2nc(-c3nn(Cc4ccccc4F)c4cc(F)ccc34)nc(N)c21 [Example 60B, (S)-3-(4-{4-amino-2-[6-fluoro-1-(2-fluorobenzyl)-1H-indazol-3-yl]-5-methyl-6-oxo-6,7-dihydro-5H-pyrrolo[2,3-d]pyrimidin-5-yl}phenyl)propanoic acid]
sGC α1/β1 heterodimer
  Emax: 128%
  EC50: 167 nM
[1]
  Ki: 0.102 nM

## CC1(c2cccc(CCC(=O)O)c2)C(=O)Nc2nc(-c3nn(Cc4ccccc4F)c4cc(F)ccc34)nc(N)c21 (stereo not drawn) [Example 61A, 3-(3-{4-amino-2-[6-fluoro-1-(2-fluorobenzyl)-1H-indazol-3-yl]-5-methyl-6-oxo-6,7-dihydro-5H-pyrrolo[2,3-d]pyrimidin-5-yl}phenyl)propanoic acid]
sGC α1/β1 heterodimer
  Emax: 109%
  EC50: 299 nM
[1]
  Ki: 0.066 nM

## CC(C)(Cc1csc([C@]2(C)C(=O)Nc3nc(-c4nn(Cc5ccccc5F)c5cc(F)ccc45)nc(N)c32)n1)C(=O)O [Example 62A, (S)-3-(2-{4-amino-2-[6-fluoro-1-(2-fluorobenzyl)-1H-indazol-3-yl]-5-methyl-6-oxo-6,7-dihydro-5H-pyrrolo[2,3-d]pyrimidin-5-yl}-1,3-thiazol-4-yl)-2,2-dimethylpropanoic acid]
sGC α1/β1 heterodimer
  Emax: 148%
  EC50: 141 nM
[1]
  Ki: 0.022 nM
